Reference: article PMC7503933, “Benzyl Furanones and Pyrones from the Marine-Derived Fungus Aspergillus terreus Induced by Chemical Epigenetic Modification” (Molecules, 2020)

Target: T1, PTP1B (Homo sapiens, UniProt P18031)
T1 construct: gene PTPN1; human recombinant (Abcam ab51277)
T1 sequence (P18031 1-435): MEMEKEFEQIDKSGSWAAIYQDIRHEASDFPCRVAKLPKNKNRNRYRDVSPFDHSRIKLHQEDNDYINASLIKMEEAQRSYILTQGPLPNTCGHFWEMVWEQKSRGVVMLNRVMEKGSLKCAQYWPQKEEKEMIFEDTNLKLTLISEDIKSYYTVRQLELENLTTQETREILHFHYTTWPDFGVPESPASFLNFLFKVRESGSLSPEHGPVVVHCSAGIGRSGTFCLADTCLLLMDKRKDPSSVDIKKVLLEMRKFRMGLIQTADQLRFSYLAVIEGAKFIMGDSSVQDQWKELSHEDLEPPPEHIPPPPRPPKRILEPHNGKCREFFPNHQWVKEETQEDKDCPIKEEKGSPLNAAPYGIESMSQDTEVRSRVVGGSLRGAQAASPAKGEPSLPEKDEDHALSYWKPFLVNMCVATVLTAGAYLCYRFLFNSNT
Assay: recombinant PTP1B pNPP hydrolysis assay, absorbance […] nm
Type: biochemical

Row | SMILES | IC50 [µM]
1 | COc1cc(O)cc(C)c1C[C@@]1(C(N)=O)OC(C)=CC1=O | 17.3
2 | COc1cc(O)cc(C)c1Cc1c(O)cc(C)oc1=O [compound 2, asperpyranone A] | 42.3
3 | COc1cc(O)cc(C)c1C[C@]1(C(N)=O)OC(C)=CC1=O [(−)-1, (−)-asperfuranone] | 35.5
4 | COc1cc(O)cc(C)c1CC1(C(N)=O)OC(C)=CC1=O (racemic) [(±)-1, Asperfuranone (1)] | 45.8
